Measurements taken from ChEMBL document CHEMBL1201862, “PubChem BioAssay data set” (2004).
Activity calls are given as the source filed them. Rule as the data show it, for most assays here: actives have a measured EC50 and inactives only a lower limit.

How the values were obtained:
[1] = biological target: T1, Heat shock factor protein 1 (Mus musculus, UniProt P38532); assay: inhibition of MG132-induced HSE-luciferase signal, confirmation, cell-based, NIH3T3, luminescence, dose retest (AID 2382); assay type: functional;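 also: NIH3T3 fibroblasts with HSF1-driven luciferase reporter stressed by proteasome inhibitor MG132; luminescence from HSF1-driven luciferase expression after 8 hours of MG132 stress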
T1 sequence (P38532 whole entry): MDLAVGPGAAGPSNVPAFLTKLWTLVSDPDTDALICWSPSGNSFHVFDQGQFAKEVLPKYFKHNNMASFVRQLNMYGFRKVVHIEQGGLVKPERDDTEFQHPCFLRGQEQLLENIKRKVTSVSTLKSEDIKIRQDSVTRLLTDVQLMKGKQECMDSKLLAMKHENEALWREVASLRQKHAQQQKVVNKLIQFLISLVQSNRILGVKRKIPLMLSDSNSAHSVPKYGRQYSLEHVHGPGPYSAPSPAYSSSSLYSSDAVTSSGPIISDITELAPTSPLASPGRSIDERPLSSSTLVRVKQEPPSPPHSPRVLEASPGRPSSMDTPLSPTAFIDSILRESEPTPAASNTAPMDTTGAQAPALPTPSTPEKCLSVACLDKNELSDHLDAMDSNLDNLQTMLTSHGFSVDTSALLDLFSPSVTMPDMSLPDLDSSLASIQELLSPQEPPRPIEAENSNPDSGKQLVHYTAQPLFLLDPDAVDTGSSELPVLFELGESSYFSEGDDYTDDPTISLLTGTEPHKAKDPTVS

[2] = Luminescence Cell-Based Dose Confirmation HTS to Identify Activators of 5'UTR Stem-Loop Driven Alpha-Synuclein mRNA Translation in H4 Neuroglioblastoma Cells. [Related pubchem assays: 1829 (Project Summary), 1814 (Primary HTS)]; assay type: functional
[3] = system: H4; assay: Luminescence Cell-Based Dose Response HTS to Identify Activators of 5'UTR Stem-Loop Driven Prion Protein mRNA Translation in H4 Neuroglioblastoma Cells. [Related pubchem assays: 1829 (Project Summary), 1814 (Primary HTS)]; assay type: functional; settings: Homo sapiens
[4] = Luminescence Cell-Based Dose Response HTS to Identify Activators of Luciferase Translation or Activity in H4 […] Cells. [Related pubchem assays: 1829 (Project Summary), 1814 (Primary HTS)]; assay type: functional
[5] = system: Streptococcus; assay: Group A Streptococcus viability loss, dose response, counter-screen for streptokinase expression inhibitor project, luminescence, BacTiterGlo (AID 1915); assay type: functional, organism-based;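 also: potency for reduction of bacterial viability or growth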
[6] = system: Streptococcus sp. 'group A'; assay: growth inhibition of control SK(-) GAS strain, dose response, counter-screen for streptokinase expression inhibitor project, luminescence, kanamycin, BacTiterGlo, confirmation (AID 1900); assay type: functional, organism-based
[7] = biological target: T2, Streptokinase A (Streptococcus pyogenes serotype M1, UniProt P10520); assay: S. pyogenes streptokinase expression inhibitors, potency, dose response, plasminogen activation absorbance, OD405 (AID 1914); assay type: functional, Streptococcus pyogenes M1 GAS;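 also: secreted streptokinase activity via plasminogen activation per viability signal from cell pellet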
T2 sequence (P10520 whole entry): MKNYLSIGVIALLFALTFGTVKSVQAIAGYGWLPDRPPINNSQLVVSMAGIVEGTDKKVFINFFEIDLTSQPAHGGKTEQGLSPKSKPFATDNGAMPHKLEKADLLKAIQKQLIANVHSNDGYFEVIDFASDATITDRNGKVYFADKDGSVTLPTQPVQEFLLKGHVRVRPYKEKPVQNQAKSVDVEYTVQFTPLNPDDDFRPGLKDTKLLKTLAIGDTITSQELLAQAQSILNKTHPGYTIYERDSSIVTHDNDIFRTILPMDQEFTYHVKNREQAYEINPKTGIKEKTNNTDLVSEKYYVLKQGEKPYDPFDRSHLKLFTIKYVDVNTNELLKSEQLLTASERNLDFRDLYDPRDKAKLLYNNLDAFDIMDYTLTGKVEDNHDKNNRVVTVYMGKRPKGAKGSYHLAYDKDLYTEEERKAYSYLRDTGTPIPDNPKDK

[8] = biological target: Luciferin 4-monooxygenase (Photinus pyralis, UniProt P08659); assay: firefly luciferase enzyme inhibitors, dose response, biochemical, luminescence (AID 1891)
Sequence of Luciferin 4-monooxygenase (P08659 whole entry): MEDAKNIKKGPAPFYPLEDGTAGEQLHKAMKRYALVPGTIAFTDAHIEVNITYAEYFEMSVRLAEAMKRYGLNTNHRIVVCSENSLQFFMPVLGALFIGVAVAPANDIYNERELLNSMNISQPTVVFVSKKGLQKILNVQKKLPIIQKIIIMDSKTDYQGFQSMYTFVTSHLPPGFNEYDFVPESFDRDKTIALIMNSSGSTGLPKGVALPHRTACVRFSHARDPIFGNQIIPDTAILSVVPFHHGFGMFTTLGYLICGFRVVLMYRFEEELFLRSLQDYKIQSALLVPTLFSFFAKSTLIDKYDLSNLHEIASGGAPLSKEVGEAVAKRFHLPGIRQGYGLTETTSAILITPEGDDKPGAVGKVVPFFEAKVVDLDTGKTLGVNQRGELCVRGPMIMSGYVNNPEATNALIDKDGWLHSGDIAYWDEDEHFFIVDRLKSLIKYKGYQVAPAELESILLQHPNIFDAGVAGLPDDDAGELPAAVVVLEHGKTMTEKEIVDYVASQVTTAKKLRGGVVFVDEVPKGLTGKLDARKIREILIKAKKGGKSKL

[9] = Luminescence Cell-Based Dose Confirmation HTS to Identify Inhibitors of Platelet Dense Granule Release. [Related pubchem assays: 1663 (Primary HTS), 1678 (Summary of Project)]; assay type: functional
[10] = biological target: T3, Rac GTPase-activating protein 1 (Homo sapiens, UniProt Q9H0H5); assay: MgcRacGAP GTPase-activating activity inhibitors, confirmation, biochemical, ADP Hunter fluorescence, primary and confirmatory (AID 624330); assay type: functional
T3 sequence (Q9H0H5 whole entry): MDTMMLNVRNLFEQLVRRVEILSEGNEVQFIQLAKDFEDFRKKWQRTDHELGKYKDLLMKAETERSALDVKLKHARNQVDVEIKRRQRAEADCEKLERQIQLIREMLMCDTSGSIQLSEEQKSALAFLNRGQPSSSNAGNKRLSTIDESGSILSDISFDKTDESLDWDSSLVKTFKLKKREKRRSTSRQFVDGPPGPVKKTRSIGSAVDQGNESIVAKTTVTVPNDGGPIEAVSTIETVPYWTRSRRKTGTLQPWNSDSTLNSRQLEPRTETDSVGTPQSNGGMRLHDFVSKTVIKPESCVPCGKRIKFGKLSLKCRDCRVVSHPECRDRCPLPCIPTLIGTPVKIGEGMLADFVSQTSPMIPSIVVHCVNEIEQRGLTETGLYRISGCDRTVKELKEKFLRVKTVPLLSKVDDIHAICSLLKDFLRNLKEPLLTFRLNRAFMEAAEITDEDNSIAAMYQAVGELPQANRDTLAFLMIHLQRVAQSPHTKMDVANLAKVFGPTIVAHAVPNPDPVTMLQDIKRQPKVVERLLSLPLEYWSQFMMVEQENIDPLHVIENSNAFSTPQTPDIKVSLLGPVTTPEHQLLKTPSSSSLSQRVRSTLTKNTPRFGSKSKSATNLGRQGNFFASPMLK

[11] = Luminescence Cell-Based Dose Retest to Confirm Inhibitors of Cancer Stem Cells. [Related pubchem assays (depositor defined):AID2717, AID2721]; assay type: functional; settings: Homo sapiens
[12] = biological target: Paired box protein Pax-8 (Homo sapiens, UniProt Q06710); assay: inhibitors of PAX8-driven TPO luciferase reporter, dose response, RMG-I cells, cherry-pick (AID 687027); assay type: functional, cell-based;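 also: luciferase reporter driven by Pax8 target thyroperoxidase promoter measured by SteadyGlo luminescence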
Sequence of Paired box protein Pax-8 (Q06710 whole entry): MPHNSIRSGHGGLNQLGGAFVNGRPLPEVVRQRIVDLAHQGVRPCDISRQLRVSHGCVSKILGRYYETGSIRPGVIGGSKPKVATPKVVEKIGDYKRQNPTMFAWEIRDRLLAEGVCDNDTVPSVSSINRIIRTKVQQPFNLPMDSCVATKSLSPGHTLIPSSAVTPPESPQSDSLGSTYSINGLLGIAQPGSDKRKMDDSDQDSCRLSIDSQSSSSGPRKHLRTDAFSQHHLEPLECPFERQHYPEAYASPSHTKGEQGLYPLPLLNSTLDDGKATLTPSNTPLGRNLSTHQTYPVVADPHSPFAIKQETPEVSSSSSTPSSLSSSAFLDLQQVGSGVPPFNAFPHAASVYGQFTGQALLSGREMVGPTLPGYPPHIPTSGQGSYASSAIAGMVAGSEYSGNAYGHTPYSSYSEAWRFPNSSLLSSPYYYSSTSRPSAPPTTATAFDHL

## Cn1c(=O)c2c(SCC(=O)N3CCCc4ccccc43)nc(C3CC3)nc2n(C)c1=O
[1]
  EC50: > 195 µM (not active)

## O=C(c1cc2ccccc2oc1=O)N(c1ccc(Cl)cc1)C1C=CS(=O)(=O)C1 (configuration not stated)
[2]
  EC50: 13.6 µM (active)
[3]
  EC50: > 120 µM (not active)
[4]
  EC50: 36.3 µM (active)

## COc1ccc(NC(=O)C2CC2)cc1-n1cnnn1
[1]
  EC50: > 195 µM (not active)

## O=C(Nc1ccccc1)C1=C[C@@H](c2ccccc2)C[C@@H](OCc2ccc(CO)cc2)O1
[2]
  EC50: 7.69 µM (active)
[3]
  EC50: 14.2 µM (active)
[4]
  EC50: > 120 µM (not active)

## Oc1ccc(-c2c(C3=CCCCC3)sc3ccccc23)cc1
[5]
  EC50: 7.29 µM (active)
[6]
  EC50: 2.48 µM (active)
[7]
  EC50: 55.7 µM (inconclusive)

## CN(C(=O)CSc1nncn1C)C1CCCN(Cc2ccccc2F)C1 (configuration not stated)
[8]
  EC50: > 112 µM (not active)
[9]
  EC50: > 112 µM (not active)

## Cc1cc(C)nc(NC2=NCCS2)n1
[8]
  EC50: > 112 µM (not active)
[9]
  EC50: > 112 µM (not active)

## O=C(Nc1cccnc1)C1CCN(S(=O)(=O)c2cccs2)CC1
[2]
  EC50: > 120 µM (not active)
[3]
  EC50: > 120 µM (not active)
[4]
  EC50: > 120 µM (not active)

## CCN(CC)CCCNCC(=O)Nc1ccc2c(c1)CCC2
[10]
  IC50: 117 µM (active)

## COc1ccc(N(C(=O)c2ccc(F)cc2)C2=CC3CCC(C2)N3C)cc1 (configuration not stated)
[8]
  EC50: > 112 µM (not active)
[9]
  EC50: > 112 µM (not active)

## CCOC(=O)c1cnn(-c2nc3c(C)cccc3s2)c1C(F)(F)F
[5]
  EC50: 16.6 µM (active)
[6]
  EC50: 9.35 µM (active)
[7]
  EC50: 22.3 µM (active)

## C[n+]1ccc(C=NNc2nc(Cl)c(C#N)c(Cl)c2Cl)cc1
[5]
  EC50: > 150 µM (not active)
[6]
  EC50: 33 µM (active)
[7]
  EC50: > 150 µM (not active)

## COc1ccc(N2CCN(C(=O)Cc3ccc(-n4c(=O)[nH]c5ccccc5c4=O)cc3)CC2)cc1
[1]
  EC50: > 195 µM (not active)

## CCOC(=O)c1[nH]c2ccc(OC)cc2c1N=C(S)N1CCN(C(=O)OCC)CC1
[8]
  EC50: > 112 µM (not active)
[9]
  EC50: > 112 µM (not active)

## CCCCCOc1ccc(CSc2n[nH]c(C)n2)cc1
[2]
  EC50: 63 µM (active)
[3]
  EC50: 20.8 µM (active)
[4]
  EC50: 14.5 µM (active)

## Nc1c(Cl)ncnc1NCCc1ccc(O)cc1
[10]
  IC50: 99.1 µM (active)

## CSc1nc(N)n2nc(-c3ccccc3)cc2n1
[8]
  EC50: 3.8 µM (active)
[9]
  EC50: 5.68 µM (active)

## O=C(NCC(O)c1ccccc1)c1ccc(Cl)c(S(=O)(=O)N2CCCC2)c1 (configuration not stated)
[2]
  EC50: 37.8 µM (active)
[4]
  EC50: 14.9 µM (active)

## CCOC(=O)c1sc(NC(=O)CC(C)c2ccccc2)nc1C (configuration not stated)
[8]
  EC50: > 112 µM (not active)
[9]
  EC50: > 112 µM (not active)

## S=C(c1ccc2c(c1)OCO2)N1CCCCC1
[8]
  EC50: > 112 µM (not active)
[9]
  EC50: > 112 µM (not active)

## O=C(Nc1ccc2c(c1)CCC2)c1cc(S(=O)(=O)Nc2ccc(F)cc2)c(Cl)cc1Cl
[5]
  EC50: 15.2 µM (active)
[6]
  EC50: 3.5 µM (active)
[11]
  AC50: 4.35 µM (active)
[7]
  EC50: 3.26 µM (active)

## Cc1cc(C(=O)CSc2nc3ccccc3o2)c(C)n1C1CC1
[2]
  EC50: 35.7 µM (active)
[4]
  EC50: 0.905 µM (active)

## COc1ccc(S(=O)(=O)NCC2CCCN(C(=O)C3CCCC3)C2)cc1 (configuration not stated)
[1]
  EC50: > 195 µM (not active)

## O=C(CC1CCCCC1)NCc1ccccc1Cl
[2]
  EC50: > 120 µM (not active)
[3]
  EC50: > 120 µM (not active)
[4]
  EC50: 14.1 µM (active)

## Cc1ccc(C)c(CSC2=NCCN2S(=O)(=O)c2ccccc2)c1
[5]
  EC50: > 150 µM (not active)
[6]
  EC50: 21.7 µM (active)
[7]
  EC50: 17.3 µM (active)

## O=C(Nc1ccc2c(c1)OCO2)C1CC(c2c(F)cccc2Cl)=NO1 (configuration not stated)
[2]
  EC50: 3.83 µM (active)
[3]
  EC50: 13.6 µM (active)
[4]
  EC50: 25.6 µM (active)

## CCOC(=O)C1=C(COC(=O)/C=C/c2ccc(O)c(OC)c2)NC(=O)NC1C (configuration not stated)
[10]
  IC50: 59.4 µM (active)

## Sc1nnc(-c2cnccn2)n1-c1ccccc1
[1]
  EC50: > 195 µM (not active)

## FC(F)(F)c1cc(N2CCN(Cc3ccccc3)CC2)c2ccccc2n1
[5]
  EC50: > 150 µM (not active)
[6]
  EC50: > 150 µM (not active)
[7]
  EC50: > 150 µM (not active)

## CCN(CC)c1ccc(-n2cc3c(=O)n(C)c(=O)n(C)c3c2)cc1
[5]
  EC50: 39.3 µM (active)
[6]
  EC50: 4.91 µM (active)
[7]
  EC50: > 150 µM (not active)

## O=C(NCc1ccccn1)C(=O)Nc1ccccc1
[2]
  EC50: 46.3 µM (active)
[3]
  EC50: 13 µM (active)
[4]
  EC50: 27.2 µM (active)

## CNC(=O)c1cc(S(=O)(=O)N(C)C)ccc1Cl
[8]
  EC50: > 112 µM (not active)
[9]
  EC50: > 112 µM (not active)

## COc1ccc(OC(C)C(=O)N2CCC(C)CC2)cc1 (configuration not stated)
[1]
  EC50: > 195 µM (not active)

## COc1ccc(/C=N/Nc2nccnc2Cl)cc1
[8]
  EC50: 3.76 µM (active)
[9]
  EC50: 1.15 µM (active)

## Nc1ccc2nc(-c3ccccn3)[nH]c2c1
[1]
  EC50: 23.2 µM (active)

## C[C@@H]1CCCCO[C@H](CN(C)Cc2ccc(C(F)(F)F)cc2)[C@H](C)CN([C@@H](C)CO)C(=O)c2cc(NS(=O)(=O)c3cccs3)ccc2O1
[12]
  AC50: 9.41 µM (active)

## O=C1c2ccccc2S(=O)(=O)c2cc(N3CCc4ccccc4C3)ccc21
[2]
  EC50: 14 µM (active)
[3]
  EC50: 15.6 µM (active)
[4]
  EC50: 16.3 µM (active)

## C/C(=N\N=C(/N)SC1CC(=O)N(c2ccc(Cl)c(Cl)c2)C1=O)c1cccs1 (configuration not stated)
[5]
  EC50: 8.08 µM (active)
[6]
  EC50: 2.88 µM (active)
[11]
  AC50: 3.86 µM (active)
[7]
  EC50: 7.44 µM (inconclusive)

## Nc1c(S(=O)(=O)c2cccs2)c2nc3ccccc3nc2n1/N=C/c1cccc(O)c1
[5]
  EC50: 7.29 µM (active)
[6]
  EC50: 3.26 µM (active)
[11]
  AC50: 3.99 µM (active)
[7]
  EC50: > 150 µM (not active)

## O=C(O)c1ccc(/C=N\Nc2ccccn2)cc1
[8]
  EC50: 3.56 µM (active)
[9]
  EC50: 2.54 µM (active)

## O=C(O)CC1Sc2ccccc2NC1=O (configuration not stated)
[8]
  EC50: > 112 µM (not active)
[9]
  EC50: > 112 µM (not active)

## COc1ccc(N2CCN(C(CNC(=O)CC(C)(C)C)c3ccc4c(c3)OCO4)CC2)cc1 (configuration not stated)
[10]
  IC50: 166 µM (active)
